{"source": "patent US20230405069A1", "about": "“METHODS OF TREATING AND […] CORONAVIRUS AND OTHER INDICATIONS, AND COMPOSITIONS FOR USE WITH SAME” (priority 2020, published 2023)", "system": "viral infection", "test": "Subjects with symptoms of viral infection treated with disclosed medicinal compositions (symptom improvement / recovery)", "format": "in vivo, human", "settings": "Patient 6; one paracetamol/acetaminophen on Day 1 of symptoms", "description": "The disclosed compositions are useful in reducing symptoms and/or eliminating viruses in persons suffering from a viral infection or believed to be suffering from a viral infection. Eliminating a virus or an infection from a subject, as used herein, may be referred to as ‘curing’ a subject, for example wherein a subject that has tested positive for the virus (by DNA, RNA, protein, and/or antibody analysis) has no detectable virus (by the same or a different method) after treatment. In these subjects, adults may be administered about 2 ml to about 150 ml per composition per day as a single dose or separated into multiple doses. In some embodiments the subject may be administered the disclosed compounds once, twice, three, or more times a day. In some embodiments, for example, an adult may be administered about 5 ml to about 150 ml of each medicinal composition each day. In many embodiments, (for example where the dose is 15 ml/day) 5 ml is administered 3 times per day as a 5 ml dose. In other embodiments, a 5 ml/day dose may also be divided into 3 or more smaller doses for administration throughout the day—for example about 2 ml three times per day. […]", "data": [{"molecule": "CC(=O)Nc1ccc(O)cc1", "note": "[paracetamol/acetaminophen]", "values": [{"measurement": "effect on symptoms", "result": "symptoms persisted"}]}]}
